The text below walks through data of US6335030B1, “Transdermally administered dextromethorphan as antitussive agent” (Pharmacia & Upjohn AB, priority 1996, dated 2002).

Each structure is given as a SMILES string.

For data set [1] the following is noted: peroral, dogs; cited from earlier work.
For data set [2] the following is noted: in vivo; cited from earlier work.
Data set [3] is described as follows: In vitro skin permeation in Franz diffusion cells. The data set is classed as in vitro ADME, pig. From the text: Quantitative determination of dextromethorphan in the receptor solution samples from the skin permeation studies in Example 3 and from the membrane permeation studies in Example 4 was done by the HPLC method described under Apparatus.
In vitro permeation of dextromethorphan from the solutions 1, 2, 3, 4, 5, 6, 7 and 8 through dermatomed pig skin was investigated in Franz diffusion Cells.
Skin pieces with a thickness of approximately 765 μm were dermatomed from full thickness pig skin and mounted in glass diffusion cells with an available diffusion area of 1.8 cm^2. Pig skin is a fully accepted model for human skin. The solutions were applied separately on the skin surfaces and the dermal sides were all exposed to 12.1 ml receptor solution consisting of a 0.05M phosphate buffer solution of pH 7.4 equilibrated to 37±1° C.
Permeation of dextromethorphan was followed by removing samples periodically and measuring the concentration by the HPLC method according to Example 2. An increase in the permeated amount of dextromethorphan is seen in the following order: Water, isopropyl myristate, propylene glycol, propylene glycol containing 5% azone, water containing 1% hydroxpropyl-b-cyclodextrine, water containing 1% b-cyclodextrine, ethanol and ethyl acetate used as solvents. The maximal observed flux of dextromethorphan is 21 μg/cm^2/h and the range is from approximately 0.5 to 21 μg/cm^2/h.

For data set [4] the following is noted: in vivo; cited from earlier work. This is another data set of the same source.
The conditions of data set [5]: cited from earlier work.

Usually half-life stands for the time in which the quantity being followed falls by half. `COc1ccc2c(c1)[C@]13CCCC[C@@H]1[C@H](C2)N(C)CC3` [dextromethorphan, (+)-3-methoxy-17-methyl-9a,13a,14a-morphinan]: the absolute bioavailability in data set [1] is 3.8%. The half-life in data set [2] was 4 to 6 h. Moreover, the “maximal observed flux through skin” value in data set [3] (dermatomed pig skin, solutions 1-8, receptor phosphate buffer pH 7.4, 37°C) worked out at 21 μg/cm^2/h. For the same compound, the “change of flux depending on solvent” value in data set [3] (ethanol, ethyl acetate or addition of cyclodextrines as solvent) is recorded as “remarkable increase in the fluxes”. In data set [4], the safety result was “safe drug”; the “side-effects compared with codeine and noscapine” value is “fewer side-effects”. Also, in data set [5] (40 mg perorally, tussometri), the “effect on coughing frequency and intensity compared to placebo” value was “significant effect on reducing coughing frequency as well as intensity”. In data set [5] (inhalation of 1-30 mg), the “antitussive effect upon inhalation” value is listed as “has not shown any antitussive effect”.
